Test results published in paper PMC7277225, “Structures of FOX-4 Cephamycinase in Complex with Transition-State Analog Inhibitors” (Biomolecules, 2020).

Legend:
[1] = target: T1, FOX-4 cephamycinase (class C β-lactamase) (Escherichia coli, UniProt Q9L387); assay: steady-state kinetics, nitrocefin hydrolysis, […] min pre-incubation; format: biochemical; conditions: read-out: FOX-4 ^1 IC50
T1 construct: native FOX-4, purified from periplasmic fractions of E. coli

[2] = target: T1, FOX-4 cephamycinase (class C β-lactamase); assay: X-ray crystal structure (soak, […] Å); IC50 with purified enzyme by nitrocefin hydrolysis; format: biochemical
[3] = target: T1, FOX-4 cephamycinase (class C β-lactamase); assay: biochemical; conditions: read-out: FOX-4 ^1 IC50

| IC50 [1] [nM] | Structure (SMILES) | other results |
| --- | --- | --- |
| 260 ± 20 | CO/N=C(\C(=O)NCB(O)O)c1csc(N)n1 [CTX-like] |  |
| 420 ± 20 | O=C(Cc1cccs1)N[C@@H](Cc1cccc(C(=O)O)c1)B(O)O [EC04] |  |
|  | CC(C)(O/N=C(\C(=O)NCB(O)O)c1csc(N)n1)C(=O)O [LP06] | IC50 [2]: 110 ± 20 nM |
|  | O=C(Cc1cccs1)N[C@H](B(O)O)c1cccc(C(=O)O)c1 [SM23] | IC50 [3]: 32 ± 3 nM |
